Experimental data published in PMC6934184, “Selective DNA-PKcs inhibition extends the therapeutic index of localized radiotherapy and chemotherapy” (The Journal of Clinical Investigation, 2019).

Biological target: T1, GRK1 (Homo sapiens, UniProt Q15835)
T1 construct: purchased Thermo Fisher Scientific (Life Technologies) SelectScreen
Experiment: SelectScreen LanthaScreen
Assay type: binding
Conditions: read-out: % displacement
Method in brief: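 NU5455 was profiled across the SelectScreen Broad panel of kinase activity and binding assays. Z'LYTE reactions such as CSF1R ran at apparent Km ATP, while the Adapta CAMK1 assay used ATP listed as 10. Values are given as percent.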

T1 sequence (Q15835 whole entry): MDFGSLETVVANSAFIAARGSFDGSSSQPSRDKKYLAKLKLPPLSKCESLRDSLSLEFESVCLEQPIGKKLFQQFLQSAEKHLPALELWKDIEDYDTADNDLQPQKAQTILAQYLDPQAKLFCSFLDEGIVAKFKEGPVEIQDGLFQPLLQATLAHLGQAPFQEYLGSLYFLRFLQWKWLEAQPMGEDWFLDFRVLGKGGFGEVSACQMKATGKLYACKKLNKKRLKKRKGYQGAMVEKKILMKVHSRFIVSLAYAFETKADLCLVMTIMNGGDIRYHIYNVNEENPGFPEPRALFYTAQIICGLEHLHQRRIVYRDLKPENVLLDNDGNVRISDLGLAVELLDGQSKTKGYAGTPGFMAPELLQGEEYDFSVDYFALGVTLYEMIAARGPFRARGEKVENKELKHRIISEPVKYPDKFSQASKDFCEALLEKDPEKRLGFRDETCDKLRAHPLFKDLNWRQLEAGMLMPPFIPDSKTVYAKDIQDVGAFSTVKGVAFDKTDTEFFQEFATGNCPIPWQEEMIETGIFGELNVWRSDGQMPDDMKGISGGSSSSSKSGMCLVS

`CN(C(=O)CN1CCOCC1)c1ccc2sc3c(-c4cccc5c(=O)cc(N6CC7CCC(C6)O7)oc45)cccc3c2c1` [NU5455] was tested, and the inhibition at 1 µM was 1.3%.
